According to patent publication US12637467B2, “Inhibitor of BTK and mutants thereof” (Newave Pharmaceutical Inc., priority 2019, dated 2026):
“Also recorded” adds a separate entry of the source.

How the values were obtained:
REC-1 xenograft = REC-1 xenograft model; assay type: in vivo, mice; details: for Tumor volume: BIDX28
From the text: Typically, athymic nude mice (CD-1 nu/nu) or SCID mice are obtained at age 6-8 weeks from vendors and acclimated for a minimum 7-day period. The cancer cells are then implanted into the nude mice. Depending on the specific tumor type, tumors are typically detectable about two weeks following implantation. When tumor sizes reach ˜100-200 mm^3, the animals with appreciable tumor size and shape are randomly assigned into groups of 8 mice each, including one vehicle control group and treatment groups. Dosing varies depending on the purpose and length of each study, which typically proceeds for about 3-4 weeks. Tumor sizes and body weight are typically measured three times per week. In addition to the determination of tumor size changes, the last tumor measurement is used to generate the tumor size change ratio (T/C value), a standard metric developed by the National Cancer Institute for xenograft tumor evaluation. In most cases, % T/C values are calculated using the following formula: % T/C=100×ΔT/ΔC if ΔT>0. When tumor regression occurred (ΔT<0), however, the following formula is used: % T/T0=100×ΔT/T0. Values of <42% are considered significant.

WT BTK [1] = biological target: T1, WT BTK (Homo sapiens, UniProt Q06187); test: In vitro dialysis assay (irreversibility assay), WT BTK; assay type: biochemical; details: for Conclusion (WT BTK): reversible or irreversible inhibition after 24 hr dialysis; for Recovery after 24 h dialysis: 0.003 mM compound pre-incubated with 2 nM BTK for 2 hr, dialyzed 24 hr against buffer with 40 mM ATP, BTK activity vs non-dialyzed samples
Method: (§1) The compound-enzyme complex was dialyzed against the same buffer supplemented with 40 mM ATP for 24 hr. Cumulative dialysis factor >160,000×. After dialysis, the BTK activity was measured in the presence 40 mM ATP and 1 mM substrate peptide and compared to that in non-dialyzed samples. Assay buffer: 100 mM HEPES, pH7.5; 0.1% BSA, 0.01% Triton-X 100; 5 mM MgCl2; 1 mM DTT.

C481S BTK [2] = biological target: T2, C481S BTK (Homo sapiens, UniProt Q06187, C481S); test: Reversibility of binding to C481S BTK enzyme; assay type: biochemical; details: cysteine not available for covalent binding
Method: as §1

WT BTK [3] = biological target: T1, WT BTK; test: Caliper-based kinase assay, WT BTK; assay type: biochemical; details: 0.5 nM enzyme, 16 μM ATP, 3 h at room temperature; read-out: WT BTK IC50 (nM) (irreversible inhibition)
Method: (§2) The reaction was then terminated with EDTA, final concentration 20 mM and the phosphorylated reaction product was quantified on a Caliper Desktop Profiler (Caliper LabChip 3000).

C481S BTK [4] = biological target: T2, C481S BTK; test: Caliper-based kinase assay, C481S BTK; assay type: biochemical; details: 0.5 nM enzyme, 16 μM ATP, 3 h at room temperature; read-out: C481S BTK IC50 (nM) (reversible inhibition)
Method: as §2

[5] = rats, treatment for longer than 7 days; cited from earlier work
[6] = formulations containing GDC-0853, Phase I clinical trials; cited from earlier work
[7] = 10 mg/kg po, day 26 of the study
[8] = 50 mg/kg po, day 28 of the study

T2 sequence (Q06187 whole entry C481S): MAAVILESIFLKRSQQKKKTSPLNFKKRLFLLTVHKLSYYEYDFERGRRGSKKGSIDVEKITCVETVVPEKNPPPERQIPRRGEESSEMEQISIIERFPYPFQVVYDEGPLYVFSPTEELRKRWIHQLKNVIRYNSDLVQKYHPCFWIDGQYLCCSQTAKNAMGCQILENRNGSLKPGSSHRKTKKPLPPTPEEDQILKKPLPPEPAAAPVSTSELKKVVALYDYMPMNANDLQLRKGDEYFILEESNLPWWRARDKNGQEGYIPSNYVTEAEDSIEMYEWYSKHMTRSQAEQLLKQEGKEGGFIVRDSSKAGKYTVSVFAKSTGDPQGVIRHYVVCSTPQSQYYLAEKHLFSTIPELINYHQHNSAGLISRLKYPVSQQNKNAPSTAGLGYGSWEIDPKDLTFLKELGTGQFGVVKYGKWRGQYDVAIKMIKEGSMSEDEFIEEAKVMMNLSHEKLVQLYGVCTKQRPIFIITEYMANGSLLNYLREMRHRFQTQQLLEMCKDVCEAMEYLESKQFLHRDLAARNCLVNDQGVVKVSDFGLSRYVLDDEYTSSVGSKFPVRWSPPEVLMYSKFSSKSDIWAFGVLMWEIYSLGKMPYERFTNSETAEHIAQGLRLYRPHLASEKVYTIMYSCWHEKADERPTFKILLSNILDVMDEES
T1 sequence (Q06187 whole entry): as the sequence (Q06187 whole entry C481S) above, with S481C counted along it

Which Tumor volume (REC-1 xenograft; [7]) does the source give for CC#CC(=O)N1CCC[C@H]1c1nc(-c2ccc(C(=O)Nc3ccccn3)cc2)c2c(N)nccn12 [ACP-196, Acalabrutinib, reference compound] here?
Its Tumor volume is 672 mm^3.

What about the Tumor volume (REC-1 xenograft; [8]) of the same compound?
The Tumor volume was 108 mm^3.

What does the source list for C=CC(=O)Nc1cc(Nc2nc(-c3ccnc(N4CCn5c(cc6c5CC(C)(C)C6)C4=O)c3CO)cn(C)c2=O)ccc1N1CCN(C)CC1 [Example 2, N-(5-((6-(2-(7,7-dimethyl-1-oxo-1,3,4,6,7,8-hexahydro-2H-cyclopenta[4,5]pyrrolo[1,2-a]pyrazin-2-yl)-3-(hydroxymethyl)pyridin-4-yl)-4-methyl-3-oxo-3,4-dihydropyrazin-2-yl)amino)-2-(4-methylpiperazin-1-yl)phenyl)acrylamide]?
Conclusion (WT BTK) (WT BTK [1]): irreversible inhibitors; also recorded: Irreversible/covalent inhibition; Mode of binding to C481S BTK (C481S BTK [2]): reversibly bind

For C=CC(=O)Nc1cc(Nc2nc(-c3ccnc(N4CCn5c(cc6c5CC(C)(C)C6)C4=O)c3CO)cn(C)c2=O)ccc1N1CCN(C2CCOCC2)C[C@@H]1C [Example 22, N-(5-[[6-(2-[4,4-dimethyl-9-oxo-1,10-diazatricyclo[6.4.0.0^[2,6]]dodeca-2(6),7-dien-10-yl]-3-(hydroxymethyl)pyridin-4-yl)-4-methyl-3-oxopyrazin-2-yl]amino]-2-[(2S)-2-methyl-4-(oxan-4-yl)piperazin-1-yl]phenyl)prop-2-enamide], which “Recovery after 24 h dialysis” value (WT BTK [1]) is on record?
The value was ~1%.

What about the “Conclusion (WT BTK)” value (WT BTK [1]) of the same compound?
The value was “Irreversible/covalent inhibition”.

What about the Tumor volume (REC-1 xenograft; [7]) of the same compound?
The Tumor volume was 450 mm^3.

And the Tumor volume (REC-1 xenograft; 12.5 mg/kg po, day 28 of the study)?
Its Tumor volume is 201 mm^3.

And the Tumor volume (REC-1 xenograft; 25 mg/kg po, day 28 of the study)?
Its Tumor volume is 58 mm^3.

What about the Tumor volume (REC-1 xenograft; [8]) of the same compound?
The Tumor volume was 56 mm^3.

And the “efficacy compared with Acalabrutinib” value (REC-1 xenograft; REC-1 xenograft, 10 mg/kg, day 26 of the study)?
Its value is “better efficacy than Acalabrutinib”.

And the “reduction of tumor growth” value (REC-1 xenograft; REC-1 xenograft, 12.5-50 mg/kg, day 28 of the study)?
Its value is “dose-dependent reduction of tumor growth”.

With C=CC(=O)Nc1cc(Nc2nc(-c3ccnc(N4CCn5c(cc6c5CC(C)(C)C6)C4=O)c3C(F)(F)F)cn(C)c2=O)ccc1N1CCN(C2COC2)C[C@@H]1C [Example 28, (S)—N-(5-((6-(2-(7,7-dimethyl-1-oxo-1,3,4,6,7,8-hexahydro-2H-cyclopenta[4,5]pyrrolo[1,2-a]pyrazin-2-yl)-3-(trifluoromethyl)pyridin-4-yl)-4-methyl-3-oxo-3,4-dihydropyrazin-2-yl)amino)-2-(2-methyl-4-(oxetan-3-yl)piperazin-1-yl)phenyl)acrylamide] as the compound, how does the IC50 (WT BTK [3]) read?
Its IC50 is > 100 nM.

And the IC50 (C481S BTK [4])?
Its IC50 is > 1000 nM.

For C=CC(=O)Nc1cc(Nc2nc(-c3ccnc(N4CCc5ncccc5C4=O)c3CO)cn(C)c2=O)ccc1N1CCN(C2COC2)C[C@@H]1C [Example 31, N-[5-([6-[3-(hydroxymethyl)-2-(5-oxo-7,8-dihydro-1,6-naphthyridin-6-yl)pyridin-4-yl]-4-methyl-3-oxopyrazin-2-yl]amino)-2-[(2S)-2-methyl-4-(oxetan-3-yl)piperazin-1-yl]phenyl]prop-2-enamide], which IC50 (WT BTK [3]) is on record?
The IC50 was > 100 nM.

Which IC50 (WT BTK [3]) does the source give for C=CC(=O)Nc1cc(Nc2nc(-c3ccnc(N4CCc5ccncc5C4=O)c3CO)cn(C)c2=O)ccc1N1CCN(C2COC2)C[C@@H]1C [Example 32, N-[5-([6-[3-(hydroxymethyl)-2-(1-oxo-3,4-dihydro-2,7-naphthyridin-2-yl)pyridin-4-yl]-4-methyl-3-oxopyrazin-2-yl]amino)-2-[(2S)-2-methyl-4-(oxetan-3-yl)piperazin-1-yl]phenyl]prop-2-enamide] here?
The IC50 was > 100 nM.

Which IC50 (WT BTK [3]) does the source give for C=CC(=O)Nc1cc(Nc2nc(-c3ccnc(N4CCc5cccnc5C4=O)c3CO)cn(C)c2=O)ccc1N1CCN(C2COC2)C[C@@H]1C [Example 33, N-[5-([6-[3-(hydroxymethyl)-2-(8-oxo-5,6-dihydro-1,7-naphthyridin-7-yl)pyridin-4-yl]-4-methyl-3-oxopyrazin-2-yl]amino)-2-[(2S)-2-methyl-4-(oxetan-3-yl)piperazin-1-yl]phenyl]prop-2-enamide] here?
The IC50 was > 100 nM.

Which “Recovery after 24 h dialysis” value (WT BTK [1]) does the source give for C=CC(=O)Nc1cc(Nc2nc(-c3ccnc(N4CCc5c(sc6c5CC(C)(C)C6)C4=O)c3CO)cn(C)c2=O)ccc1N1CCN(C2COC2)C[C@@H]1C [Example 34, N-(5-[[6-(2-[4,4-dimethyl-9-oxo-7-thia-10-azatricyclo[6.4.0.0^[2,6]]dodeca-1(8),2(6)-dien-10-yl]-3-(hydroxymethyl)pyridin-4-yl)-4-methyl-3-oxopyrazin-2-yl]amino]-2-[(2S)-2-methyl-4-(oxetan-3-yl)piperazin-1-yl]phenyl)prop-2-enamide] here?
Its value is ~1%.

What about the “Conclusion (WT BTK)” value (WT BTK [1]) of the same compound?
Its value is “Irreversible/covalent inhibition”.

And the IC50 (WT BTK [3])?
Its IC50 is 0.073 nM.

And the IC50 (C481S BTK [4])?
Its IC50 is 0.46 nM.

For C=CC(=O)Nc1cc(Nc2nc(-c3ccnc(N4CCc5c(sc6c5CCCC6)C4=O)c3C)cn(C)c2=O)ccc1N1CCN(C2COC2)C[C@@H]1C [Example 44, (S)—N-(2-(2-methyl-4-(oxetan-3-yl)piperazin-1-yl)-5-((4-methyl-6-(3-methyl-2-(1-oxo-3,4,5,6,7,8-hexahydrobenzo [4, 5]thieno[2,3-c]pyridin-2(1H)-yl)pyridin-4-yl)-3-oxo-3,4-dihydropyrazin-2-yl)amino)phenyl) acrylamide], which “Conclusion (WT BTK)” value (WT BTK [1]) is on record?
The value was “Irreversible/covalent inhibition”.

For C=CC(=O)Nc1cc(Nc2nc(-c3ccnc(N4CCn5c(cc6c5CC(C)(C)C6)C4=O)c3C)cn(C)c2=O)ccc1N1CCN(C2COC2)CC1(C)C [Example 45, N-[2-[2,2-dimethyl-4-(oxetan-3-yl)piperazin-1-yl]-5-[[6-(2-[4,4-dimethyl-9-oxo-1,10-diazatricyclo[6.4.0.0^[2,6]]dodeca-2(6),7-dien-10-yl]-3-methylpyridin-4-yl)-4-methyl-3-oxopyrazin-2-yl]amino]phenyl]prop-2-enamide], which “Recovery after 24 h dialysis” value (WT BTK [1]) is on record?
Its value is ~1%.

What about the “Conclusion (WT BTK)” value (WT BTK [1]) of the same compound?
Its value is “Irreversible/covalent inhibition”.

Which “Recovery after 24 h dialysis” value (WT BTK [1]) does the source give for C=CC(=O)Nc1cc(Nc2nc(-c3ccnc(N4CCn5c(cc6c5CC(C)(C)C6)C4=O)c3C)cn(C)c2=O)cnc1N1CCN(C2COC2)C[C@@H]1C [Example 46, N-(5-[[6-(2-[4,4-dimethyl-9-oxo-1,10-diazatricyclo[6.4.0.0^[2,6]]dodeca-2(6),7-dien-10-yl]-3-methylpyridin-4-yl)-4-methyl-3-oxopyrazin-2-yl]amino]-2-[(2S)-2-methyl-4-(oxetan-3-yl)piperazin-1-yl]pyridin-3-yl)prop-2-enamide] here?
The value was ~1%.

What about the “Conclusion (WT BTK)” value (WT BTK [1]) of the same compound?
Its value is “Irreversible/covalent inhibition”.

Which results are given for C[C@H]1CN(C2COC2)CCN1c1ccc(Nc2cc(-c3ccnc(N4CCn5c(cc6c5CC(C)(C)C6)C4=O)c3CO)cn(C)c2=O)nc1 [GDC-0853, reference compound]?
Conclusion (WT BTK) (WT BTK [1]): reversible WT BTK inhibitor; pancreatic toxicity [5]: leads to pancreatic toxicity; tolerability [6]: well-tolerated
